Source: US20240382507A1, “PHARMACEUTICAL COMPOSITIONS COMPRISING 2,3,4,5- TETRAHYDROBENZOTHIEPIN- 1,1-DIOXIDE DERIVATIVES AND THE USE THEREOF” (Mirum Pharmaceuticals, Inc., priority 2023, published 2024)
Counter-ions that a name gives are not always drawn.

Legend:
[1] = Excipient compatibility: potency and purity of binary volixibat:excipient formulations on storage (HPLC); assay type: physicochemical
Description: Binary formulations of volixibat potassium were prepared at either 1:1 or 10:1 ratio with the excipients outlined in Table 1.1. Powder grade excipients were utilized to maximize surface area interactions between excipient and drug substance.
Each formulation was prepared at 300 mg total sample size. Volixibat and each excipient was weighed into glass vials and mixed via vortex. A single vial of each formulation was stored loosely capped at two storage conditions: ambient/60% RH and 40° C./75% RH. Humidity control was obtained by using a saturated salt solution in a sealed container. […] A standard solution of volixibat DS prepared at nominal concentration in the analytical diluent served as the T=0 data point. The neat, loose drug substance powder was stored in the same vial configuration to serve as a control at each storage condition.
At the specified time points, approximately 50 mg of each formulation was sampled and diluted with analytical diluent in either 50 mL (for 1:1 formulations) or 100 mL (for […] and neat DS) to target nominal analytical concentration of 0.5 mg/mL volixibat. HPLC analysis was used based on the parameters described above under HPLC Parameters (Gradient Elution).

[2] = Formulation flow properties; assay type: physicochemical
physchem = settings: 25 °C, water

SMILES	Potency, % LC Volixibat ([1]; stored at 40° C./75% RH, T = 2-weeks) [% LC]	Potency, % LC Volixibat ([1]; stored at 40° C./75% RH, T = 4 weeks) [% LC]	Potency, % LC Volixibat ([1]; stored at 40° C./75% RH, T = 8 weeks) [% LC]	Potency, % LC Volixibat ([1]; stored at RT/60% RH, T = 2-weeks) [% LC]	Potency, % LC Volixibat ([1]; stored at RT/60% RH, T = 4 weeks) [% LC]	Potency, % LC Volixibat ([1]; stored at RT/60% RH, T = 9 weeks) [% LC]	Bulk Density [2] [g/mL]	Hausner Ratio [2]	Tapped Density [2] [g/mL]	solubility (physchem) [mg/mL]
CCCC[C@]1(CC)CS(=O)(=O)c2ccc(N(C)C)cc2[C@@H](c2cccc(NC(=O)N[C@@H]3O[C@H](COS(=O)(=O)[O-])[C@@H](O)[C@H](OCc4ccccc4)[C@H]3O)c2)[C@H]1O.[K+] [Volixibat DS]	93.2	105.1	98.3	100.9	107.7	97.1	0.54	1.27	0.69	
CCCC[C@]1(CC)CS(=O)(=O)c2ccc(N(C)C)cc2[C@@H](c2cccc(NC(=O)N[C@@H]3O[C@H](COS(=O)(=O)O)[C@@H](O)[C@H](OCc4ccccc4)[C@H]3O)c2)[C@H]1O [volixibat, ((2R,3R,4S,5R,6R)-4-benzyloxy-6-{3-[3-((3S,4R,5R)-3-butyl-7-dimethylamino-3-ethyl-4-hydroxy-1,1-dioxo-2,3,4,5-tetrahydro-1H-benzo[b]thiepin-5-yl)-phenyl]-ureido}-3,5-dihydroxy-tetrahydro-pyran-2-ylmethyl) hydrogen sulfate)]										> 200
